Laboratory results from US11072591B2, “Tetrazole compounds and their use in the treatment of tuberculosis” (GLAXOSMITHKLINE INTELLECTUAL PROPERTY DEVELOPMENT LIMITED, priority 2017, dated 2021).
In brackets after ≈: the same amount, converted by molar mass. Read-outs that look alike come from different tables or passages of the source.

Tested on: M. tuberculosis H37Rv
Test: Mycobacterium tuberculosis H37Rv Inhibition Assay (Whole Cell Assay), MIC
Assay type: cell-based
[1] = 144 h, M. tuberculosis H37Rv, Middlebrook 7H9 + ADC, 37° C. six days, resazurin readout, read-out: MIC_H37Rv
[2] = M. tuberculosis H37Rv whole cell assay, value from repeated testing of the compound, read-out: MIC

Row | Compound | MIC [1] [µM] | MIC [2] [µM]
1 | Cc1nccc(Cn2nnc(-c3ccc(S(=O)(=O)NCCO)cc3)n2)n1 [Example 23] | 5 to 10 | 
2 | O=S(=O)(NCCO)c1ccc(-c2nnn(CC3CCOCC3)n2)cc1F [Example 78, 2-fluoro-N-(2-hydroxyethyl)-4-(2-((tetrahydro-2H-pyran-4-yl)methyl)-2H-tetrazol-5-yl)benzenesulfonamide] | < 0.1 | 
3 | COc1cnc(Cn2nnc(-c3ccc(S(=O)(=O)NCC#N)cc3)n2)cn1 [Example 92, N-(cyanomethyl)-4-(2-((5-methoxypyrazin-2-yl)methyl)-2H-tetrazol-5-yl)benzenesulfonamide] | 1 to 5 | 
4 | Cc1ccc(Cn2nnc(-c3ccc(S(=O)(=O)NCCO)cc3)n2)cn1 [Example 101, N-(2-hydroxyethyl)-4-(2-((6-methylpyridin-3-yl)methyl)-2H-tetrazol-5-yl)benzenesulfonamide] | < 0.1 | 
5 | O=S(=O)(NCCO)c1ccc(-c2cn(Cc3ccncc3)nn2)cc1 [Example 65] | < 0.1 | 
6 | COc1cc(-c2nnn(Cc3ccc(F)cc3)n2)ccc1S(=O)(=O)NCC(N)=O [Example 53, 2-(4-(2-(4-fluorobenzyl)-2H-tetrazol-5-yl)-2-methoxyphenylsulfonamido)acetamide] |  | 0.04 (≈ 0.0168 µg/mL)
7 | C[C@H](O)CNS(=O)(=O)c1ccc(-c2nnn(Cc3ccc(F)cc3)n2)cc1 [Example 14] | 1 to 5 | 
8 | NC(=O)CNS(=O)(=O)c1ccc(-c2nnn(CC3CCC(F)(F)CC3)n2)cc1 [Example 39] | < 0.1 | 
9 | CNS(=O)(=O)c1ccc(-c2nnn(Cc3ccncc3)n2)cc1OC [Example 51, 2-methoxy-N-methyl-4-(2-(pyridin-4-ylmethyl)-2H-tetrazol-5-yl)benzenesulfonamide] | 1 to 5 | 
10 | N#CCNS(=O)(=O)c1ccc(-c2nnn(Cc3ccncc3)n2)cc1 [Example 56] | < 0.1 | 
11 | O=S(=O)(NCCO)c1ccc(-c2nnn(Cc3ccc(F)cn3)n2)c(Cl)c1 [Example 81, 3-chloro-4-(2-((5-fluoropyridin-2-yl)methyl)-2H-tetrazol-5-yl)-N-(2-hydroxyethyl)benzenesulfonamide] | < 0.1 | 
12 | CNS(=O)(=O)c1ccc(-c2nnn(Cc3ccc(F)cc3)n2)cc1 [Example 3, 4-(2-(4-fluorobenzyl)-2H-tetrazol-5-yl)-N-methylbenzenesulfonamide] | 1 to 5 | 
13 | Cc1cc(-c2nnn(Cc3ccc(F)cn3)n2)ccc1S(=O)(=O)NCCO [Example 71, 4-(2-((5-fluoropyridin-2-yl)methyl)-2H-tetrazol-5-yl)-N-(2-hydroxyethyl)-2-methyl Benzenesulfonamide] | < 0.1 | 
14 | COc1cc(-c2nnn(Cc3ccc(C#N)cc3)n2)ccc1S(=O)(=O)NCCO [Example 49, 4-(2-(4-cyanobenzyl)-2H-tetrazol-5-yl)-N-(2-hydroxyethyl)-2-methoxybenzenesulfonamide] | < 0.1 | 
15 | O=S(=O)(NC(CO)CO)c1ccc(-c2nnn(Cc3ccncc3)n2)cc1 [Example 16] | 5 to 10 | 
16 | Cc1cc(S(=O)(=O)NCCO)ccc1-c1nnn(Cc2ccc(F)cn2)n1 [Example 73, 4-(2-((5-fluoropyridin-2-yl)methyl)-2H-tetrazol-5-yl)-N-(2-hydroxyethyl)-3-methylbenzenesulfonamide] | < 0.1 | 
17 | O=S(=O)(NCCO)c1ccc(-c2nnn(CC3CCCCO3)n2)cc1 (racemic) [Example 7, N-(2-hydroxyethyl)-4-(2-((tetrahydro-2H-pyran-2-yl)methyl)-2H-tetrazol-5-yl)benzenesulfonamide] | < 0.1 | 
18 | O=S(=O)(NCCO)c1ccc(-c2nnn(Cc3ccnnc3)n2)cc1 [Example 106, N-(2-hydroxyethyl)-4-(2-(pyridazin-4-ylmethyl)-2H-tetrazol-5-yl)benzenesulfonamide] | < 0.1 | 
19 | O=S(=O)(NCCO)c1ccc(-c2nnn(Cc3ccc(Cl)cn3)n2)cc1 [Example 18, 4-(2-((5-chloropyridin-2-yl)methyl)-2H-tetrazol-5-yl)-N-(2-hydroxyethyl)benzenesulfonamide] | < 0.1 | 

Row | Compound | MIC [1] [µM] | MIC [2] [µM]
20 | O=S(=O)(NCCO)c1ccc(-c2cn(Cc3ccc(F)cn3)nn2)cc1 [Example 62, (4-(1-((5-fluoropyridin-2-yl)methyl)-1H-1,2,3-triazol-4-yl)-N-(2-hydroxyethyl)benzenesulfonamide)] | 1 to 5 | 
21 | O=S(=O)(NCCO)c1ccc(-c2nnn(Cc3cccnc3)n2)cc1 [Example 102, N-(2-hydroxyethyl)-4-(2-(pyridin-3-ylmethyl)-2H-tetrazol-5-yl)benzenesulfonamide] | < 0.1 | 
22 | COc1cc(-c2nnn(Cc3ccc(F)cn3)n2)ccc1S(=O)(=O)NCCO [Example 50, 4-(2-((5-fluoropyridin-2-yl)methyl)-2H-tetrazol-5-yl)-N-(2-hydroxyethyl)-2-methoxybenzenesulfonamide] | 1 to 5 | 
23 | O=S(=O)(NCCO)c1ccc(-c2nnn(Cc3ccncc3)n2)cc1 [Example 33] | < 0.1 | 
24 | NC(=O)CNS(=O)(=O)c1ccc(-c2nnn(CC3CCCCO3)n2)cc1 (centres unmarked) [Example 96, 2-((4-(2-((tetrahydro-2H-pyran-2-yl)methyl)-2H-tetrazol-5-yl)phenyl)sulfonamido)acetamide] | < 0.1 | 
25 | COc1cc(-c2nnn(CC3CCC(F)(F)CC3)n2)ccc1S(=O)(=O)NCC(N)=O [Example 95, 2-((4-(2-((4,4-difluorocyclohexyl)methyl)-2H-tetrazol-5-yl)-2-methoxyphenyl)sulfonamido)acetamide] | 1 to 5 | 
26 | Cc1ccc(Cn2nnc(-c3ccc(S(=O)(=O)NCCO)cc3)n2)nc1 [Example 32] | 1 to 5 | 
27 | COc1cc(-c2nnn(Cc3ccncc3)n2)ccc1S(=O)(=O)NCC(N)=O [Example 55] | < 0.1 | 
28 | C[C@@H](O)CNS(=O)(=O)c1ccc(-c2nnn(Cc3ccncc3)n2)cc1 [Example 12] | < 0.1 | 
29 | C[C@@H](c1ccc(F)cn1)n1nnc(-c2ccc(S(=O)(=O)NCCO)cc2)n1 [Example 111 (S-isomer), (S)-4-(2-(1-(5-fluoropyridin-2-yl)ethyl)-2H-tetrazol-5-yl)-N-(2-hydroxyethyl)benzenesulfonamide] |  | 0.6 to 1.88 (≈ 0.235 to 0.736 µg/mL)
30 | O=S(=O)(NCCO)c1ccc(-c2nnn(Cc3ccc(F)cn3)n2)cc1 [Example 29, 4-(2-((5-fluoropyridin-2-yl)methyl)-2H-tetrazol-5-yl)-N-(2-hydroxyethyl)benzenesulfonamide] | < 0.1 | 0.07 to 0.16 (≈ 0.0265 to 0.0605 µg/mL)
31 | N#Cc1ccc(Cn2nnc(-c3ccc(S(=O)(=O)NCCO)cc3)n2)nc1 [Example 20] | < 0.1 | 
32 | COc1cc(-c2nnn(C(C)c3ccc(F)cc3)n2)ccc1S(=O)(=O)NCC(N)=O (single isomer, unassigned) [Example 115 Isomer 2, 2-(4-(2-(1-(4-fluorophenyl)ethyl)-2H-tetrazol-5-yl)-2-methoxyphenylsulfonamido)acetamide] |  | 0.45 to 1.25 (≈ 0.196 to 0.543 µg/mL)
33 | Cc1cc(Cn2nnc(-c3ccc(S(=O)(=O)NCC(N)=O)cc3)n2)ccn1 [Example 42] | < 0.1 | 
34 | N#Cc1ccc(Cn2cc(-c3ccc(S(=O)(=O)NCCO)cc3)nn2)cc1 [Example 66] | < 0.1 | 
35 | O=S(=O)(NCCO)c1ccc(-c2nnn(CC3CCCOC3)n2)cc1 (centres unmarked) [Example 104, N-(2-hydroxyethyl)-4-(2-((tetrahydro-2H-pyran-3-yl)methyl)-2H-tetrazol-5-yl)benzenesulfonamide] | 5 to 10 | 
36 | N#CCNS(=O)(=O)c1ccc(-c2cn(Cc3ccc(F)cn3)nn2)cc1 [Example 61] | < 0.1 | 
37 | O=S(=O)(NCCO)c1ccc(-c2nnn(Cc3ncc(F)cc3F)n2)cc1 [Example 21] | 1 to 5 | 
